Data reported in the supplement of paper PMC13207355.

Experiments:
Conditions in all cases: exposure time: 72 h
E57 [1] = patient-derived glioblastoma stem cells of mesenchymal subtype; experiment: phenotypic distance (Euclidean, principal components) from DMSO controls (arbitrary units); higher = stronger morphological change
E21 [2] = patient-derived glioblastoma stem cells of mesenchymal subtype; experiment: as above
E34 [3] = patient-derived glioblastoma stem cells of proneural subtype; experiment: as above
E13 [4] = patient-derived glioblastoma stem cells of classical subtype; experiment: as above
FT3469 [5] = normal neural stem cell line; experiment: as above
E28 [6] = patient-derived glioblastoma stem cells of classical subtype; experiment: as above
E57 [7] = experiment: surviving fraction (nuclei count normalised to DMSO); higher = more cells surviving (less toxic)
E21 [8] = experiment: as above
E34 [9] = experiment: as above
E13 [10] = experiment: as above
FT3469 [11] = experiment: as above
E28 [12] = experiment: as above
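Throughout, for phenotypic distance (Euclidean, principal components) from DMSO controls: cell Painting imaging in 384-well plates, CellProfiler features reduced to at least 20 principal components, Euclidean distance versus same-plate DMSO vehicle wells (0.1% v/v), median over six images per well.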
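Throughout, for surviving fraction (nuclei count normalised to DMSO): nuclei counted by high-content imaging of Hoechst-stained cells in laminin-coated 384-well plates, relative to 0.1% DMSO vehicle wells, with staurosporine as cell-death control.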

Cc1cc(C)c(CN2CCc3c(Cl)cc(-c4c(C)noc4C)c(Cl)c3C2=O)c(=O)[nH]1
Conditions	phenotypic distance	surviving fraction
E13 [4], 4.1 nM	0.55	–
E13 [4], 4.11523 nM	0.762	–
E13 [4], 12.3 nM	0.528	–
E13 [4], 12.34567901 nM	0.464	–
E13 [4], 37 nM	0.636	–
E13 [4], 37.037 nM	0.555	–
E13 [4], 111.1 nM	0.599	–
E13 [4], 111.1111111 nM	0.586	–
E13 [4], 333.3 nM	0.546	–
E13 [4], 333.333 nM	2.27	–
E13 [4], 1000 nM	0.5296	–
E13 [4], 3000 nM	1.67	–
E13 [10], 4.1 nM	–	1.06
E13 [10], 4.11523 nM	–	0.856
E13 [10], 12.3 nM	–	1.14
E13 [10], 12.34567901 nM	–	0.965
E13 [10], 37 nM	–	0.832
E13 [10], 37.037 nM	–	1
E13 [10], 111.1 nM	–	1.12
E13 [10], 111.1111111 nM	–	1.02
E13 [10], 333.3 nM	–	0.891
E13 [10], 333.333 nM	–	1.06
E13 [10], 1000 nM	–	1.01
E13 [10], 3000 nM	–	0.89
E21 [2], 4.1 nM	0.846	–
E21 [2], 4.11523 nM	0.624	–
E21 [2], 12.3 nM	0.502	–
E21 [2], 12.34567901 nM	0.663	–
E21 [2], 37 nM	0.782	–
E21 [2], 37.037 nM	0.448	–
E21 [2], 111.1 nM	0.333	–
E21 [2], 111.1111111 nM	2.67	–
E21 [2], 333.3 nM	1.29	–
E21 [2], 333.333 nM	0.358	–
E21 [2], 1000 nM	0.536	–
E21 [2], 3000 nM	0.603	–
E21 [8], 4.1 nM	–	0.906
E21 [8], 4.11523 nM	–	0.889
E21 [8], 12.3 nM	–	1.06
E21 [8], 12.34567901 nM	–	0.956
E21 [8], 37 nM	–	0.952
E21 [8], 37.037 nM	–	0.858
E21 [8], 111.1 nM	–	1.03
E21 [8], 111.1111111 nM	–	1.03
E21 [8], 333.3 nM	–	0.966
E21 [8], 333.333 nM	–	0.985
E21 [8], 1000 nM	–	0.973
E21 [8], 3000 nM	–	0.984
E28 [6], 4.1 nM	0.563	–
E28 [6], 4.11523 nM	0.484	–
E28 [6], 12.3 nM	0.447	–
E28 [6], 12.34567901 nM	0.539	–
E28 [6], 37 nM	0.798	–
E28 [6], 37.037 nM	0.532	–
E28 [6], 111.1 nM	0.371	–
E28 [6], 111.1111111 nM	2.05	–
E28 [6], 333.3 nM	0.616	–
E28 [6], 333.333 nM	0.607	–
E28 [6], 1000 nM	0.701	–
E28 [6], 3000 nM	0.617	–
E28 [12], 4.1 nM	–	0.912
E28 [12], 4.11523 nM	–	1.06
E28 [12], 12.3 nM	–	1.07
E28 [12], 12.34567901 nM	–	0.996
E28 [12], 37 nM	–	0.901
E28 [12], 37.037 nM	–	1.05
E28 [12], 111.1 nM	–	0.947
E28 [12], 111.1111111 nM	–	0.947
E28 [12], 333.3 nM	–	0.95
E28 [12], 333.333 nM	–	1.17
E28 [12], 1000 nM	–	0.98
E28 [12], 3000 nM	–	0.991
E34 [3], 4.1 nM	0.88	–
E34 [3], 4.11523 nM	0.409	–
E34 [3], 12.3 nM	0.682	–
E34 [3], 12.34567901 nM	0.739	–
E34 [3], 37 nM	1.1	–
E34 [3], 37.037 nM	0.359	–
E34 [3], 111.1 nM	0.667	–
E34 [3], 111.1111111 nM	0.478	–
E34 [3], 333.3 nM	1.23	–
E34 [3], 333.333 nM	0.552	–
E34 [3], 1000 nM	0.66	–
E34 [3], 3000 nM	1.1	–
E34 [9], 4.1 nM	–	0.921
E34 [9], 4.11523 nM	–	0.993
E34 [9], 12.3 nM	–	1.13
E34 [9], 12.34567901 nM	–	0.993
E34 [9], 37 nM	–	0.811
E34 [9], 37.037 nM	–	0.929
E34 [9], 111.1 nM	–	1.11
E34 [9], 111.1111111 nM	–	0.938
E34 [9], 333.3 nM	–	0.85
E34 [9], 333.333 nM	–	1.01
E34 [9], 1000 nM	–	0.861
E34 [9], 3000 nM	–	0.96
E57 [1], 4.1 nM	0.289	–
E57 [1], 4.11523 nM	0.517	–
E57 [1], 12.3 nM	0.432	–
E57 [1], 12.34567901 nM	0.412	–
E57 [1], 37 nM	0.351	–
E57 [1], 37.037 nM	0.334	–
E57 [1], 111.1 nM	0.307	–
E57 [1], 111.1111111 nM	0.418	–
E57 [1], 333.3 nM	0.28	–
E57 [1], 333.333 nM	0.343	–
E57 [1], 1000 nM	0.373	–
E57 [1], 3000 nM	0.511	–
E57 [7], 4.1 nM	–	0.932
E57 [7], 4.11523 nM	–	0.986
E57 [7], 12.3 nM	–	0.955
E57 [7], 12.34567901 nM	–	0.938
E57 [7], 37 nM	–	1.02
E57 [7], 37.037 nM	–	1.04
E57 [7], 111.1 nM	–	0.932
E57 [7], 111.1111111 nM	–	1.01
E57 [7], 333.3 nM	–	1
E57 [7], 333.333 nM	–	1.01
E57 [7], 1000 nM	–	1.02
E57 [7], 3000 nM	–	1.06
FT3469 [5], 4.1 nM	0.799	–
FT3469 [5], 4.11523 nM	0.574	–
FT3469 [5], 12.3 nM	0.456	–
FT3469 [5], 12.34567901 nM	0.531	–
FT3469 [5], 37 nM	3.66	–
FT3469 [5], 37.037 nM	0.66	–
FT3469 [5], 111.1 nM	0.618	–
FT3469 [5], 111.1111111 nM	0.467	–
FT3469 [5], 333.3 nM	0.925	–
FT3469 [5], 333.333 nM	1.74	–
FT3469 [5], 1000 nM	0.694	–
FT3469 [5], 3000 nM	0.451	–
FT3469 [11], 4.1 nM	–	0.866
FT3469 [11], 4.11523 nM	–	0.918
FT3469 [11], 12.3 nM	–	0.934
FT3469 [11], 12.34567901 nM	–	0.961
FT3469 [11], 37 nM	–	0.862
FT3469 [11], 37.037 nM	–	0.857
FT3469 [11], 111.1 nM	–	0.892
FT3469 [11], 111.1111111 nM	–	1.05
FT3469 [11], 333.3 nM	–	0.977
FT3469 [11], 333.333 nM	–	0.9
FT3469 [11], 1000 nM	–	0.914
FT3469 [11], 3000 nM	–	0.971
